From patent US20210317401A1, “USE OF CYSTEINE OR SALT THEREOF FOR CRYOPROTECTING LACTIC ACID BACTERIA” (CJ CHEILJEDANG CORPORATION, priority 2018, published 2021)

Tests used:
[1] = system: Lactobacillus plantarum CJLP133; assay: High-concentration culturing of lactic acid bacteria, O.D. value; format: cell-based; details: 0.1% in MRS liquid medium; from O.D. results
Description: (§1) A Lactobacillus plantarum CJLP133 strain was cultured at 37° C. for 11 hours in an MRS liquid medium (Difco, USA) containing 0.1% of cysteine monohydrochloride.
(§2) A Lactobacillus plantarum CJLP133 strain was cultured at 37° C. for 11 hours in an MRS liquid medium (Difco, USA) not containing 0.1% of cysteine monohydrochloride.
The evaluation of the lactic acid bacteria culturing was measured by diluting a lactic acid bacteria culture solution 20 times at 600 nm using a spectrophotometer (NanoPhotometer, IMPLEN) according to the method for measuring an optical density (O.D.) value of Korean Food Additives Codex.

[2] = system: Lactobacillus plantarum CJLP133; assay: High-concentration culturing of lactic acid bacteria, number of live bacteria; format: cell-based; details: 0.1% in MRS liquid medium; from live bacteria counts
Description: as §1, §2
A lactic acid bacteria culture solution was diluted with sterilized physiological water and smeared so that 30 to 300 colonies were formed in an MRS agar plate medium, and then cultured at 37° C. for 24 hours. The number of colonies observed after the culturing was counted and calculated as the number of live bacteria per mL.

SMILES: Cl.N[C@@H](CS)C(=O)O [cysteine monohydrochloride]
- ability to accelerate the growth of lactic acid bacteria (in words) [1]: excellent
- ability to accelerate the growth of lactic acid bacteria (in words) [2]: excellent
